According to ChEMBL document CHEMBL1201862, “PubChem BioAssay data set” (2004):
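In this assay, cells in 96-well plates receive the compound at five concentrations for 48 hours. Endpoints are linearly interpolated between the surrounding concentrations. GI50 marks 50% less growth.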 Activity calls are given as the source filed them. Cut-off read from the data, not from the text of the source: active = GI50 up to about 1.1 µM and inactive = higher.

How the values were obtained:
Assay in all cases: inhibition of tumour cell growth, NCI panel, 48 h
RPMI-8226 = test system: RPMI-8226
TK-10 = test system: TK-10
DMS-273 = test system: DMS-273
HCC 2998 = test system: HCC 2998
NCI-H23 = test system: NCI-H23
OVCAR-5 = test system: OVCAR-5
Malme-3M = test system: Malme-3M
SF-295 = test system: SF-295
CCRF-CEM = test system: CCRF-CEM
KM12 = test system: KM12
UACC-62 = test system: UACC-62
COLO 205 = test system: COLO 205
HCT-116 = test system: HCT-116
A498 = test system: A498
OVCAR-8 = test system: OVCAR-8
SF-539 = test system: SF-539
ACHN = test system: ACHN
SK-MEL-28 = test system: SK-MEL-28

Row | Structure (SMILES) | GI50 (RPMI-8226) | GI50 (TK-10) | GI50 (DMS-273) | GI50 (HCC 2998) | GI50 (NCI-H23) | GI50 (OVCAR-5) | GI50 (Malme-3M) | GI50 (SF-295) | GI50 (CCRF-CEM) | GI50 (KM12) | GI50 (UACC-62) | GI50 (COLO 205) | GI50 (HCT-116) | GI50 (A498) | GI50 (OVCAR-8) | GI50 (SF-539) | GI50 (ACHN) | GI50 (SK-MEL-28)
1 | Cc1nc2c(o1)/C(=N\c1ccccc1)c1ccccc1C2=O | 5.66 µM (inactive) | 35.1 µM (inactive) | 10.2 µM (inactive) | 18.6 µM (inactive) | 1.9 µM (inactive) | 18.5 µM (inactive) | 3.98 µM (inactive) | 16.5 µM (inactive) | 10.9 µM (inactive) | 15.1 µM (inactive) | 3.37 µM (inactive) | 15.8 µM (inactive) | 6.98 µM (inactive) | 34.1 µM (inactive) | 3.67 µM (inactive) | 5.16 µM (inactive) | 7.16 µM (inactive) | –
2 | O=C(c1ccccc1)N1CCN2CCN=C(c3ccccc3)C21c1ccccc1 (configuration not stated) | 25.5 µM (inactive) | > 100 µM (inactive) | > 100 µM (inactive) | > 100 µM (inactive) | 80.2 µM (inactive) | – | 35.5 µM (inactive) | 52.1 µM (inactive) | 61.9 µM (inactive) | > 100 µM (inactive) | 18.1 µM (inactive) | > 100 µM (inactive) | 48.2 µM (inactive) | > 100 µM (inactive) | > 100 µM (inactive) | 71.3 µM (inactive) | 63.1 µM (inactive) | > 100 µM (inactive)
3 | COc1cc([C@H]2c3cc4c(cc3[C@H](NCc3ccc(F)cc3)C3COC(=O)[C@H]32)OCO4)cc(OC)c1O (some centres not stated) | 2.31 µM (inactive) | 15.4 µM (inactive) | 1.3 µM (inactive) | 10.5 µM (inactive) | 2.22 µM (inactive) | 8.91 µM (inactive) | 3.79 µM (inactive) | 2.25 µM (inactive) | 0.923 µM (active) | 3.33 µM (inactive) | 1.56 µM (inactive) | 13.6 µM (inactive) | 7.59 µM (inactive) | 2.19 µM (inactive) | 4.3 µM (inactive) | 1.79 µM (inactive) | 1.13 µM (inactive) | 11 µM (inactive)
4 | O=C(/C=C(\O)C(=O)O)/C=C(\O)c1ccc(Cl)cc1 | > 100 µM (inactive) | > 100 µM (inactive) | > 100 µM (inactive) | > 100 µM (inactive) | > 100 µM (inactive) | > 100 µM (inactive) | > 100 µM (inactive) | > 100 µM (inactive) | > 100 µM (inactive) | > 100 µM (inactive) | > 100 µM (inactive) | > 100 µM (inactive) | > 100 µM (inactive) | > 100 µM (inactive) | > 100 µM (inactive) | > 100 µM (inactive) | > 100 µM (inactive) | > 100 µM (inactive)
5 | Cc1cc(N(CCC#N)CCC#N)ccc1/N=N/c1ccc(Br)cc1 | > 45.9 µM (inactive) | 14.3 µM (inactive) | 17.8 µM (inactive) | > 27 µM (inactive) | 17.5 µM (inactive) | > 100 µM (inactive) | 53.6 µM (inactive) | 21.4 µM (inactive) | > 31.6 µM (inactive) | > 23.8 µM (inactive) | 9.31 µM (inactive) | > 100 µM (inactive) | 36.8 µM (inactive) | 13.7 µM (inactive) | > 37.6 µM (inactive) | 17.8 µM (inactive) | 9.12 µM (inactive) | > 100 µM (inactive)
6 | O=P(CN1CCOCC1)(c1ccccc1)c1ccccc1 | > 100 µM (inactive) | > 100 µM (inactive) | > 100 µM (inactive) | – | > 100 µM (inactive) | > 100 µM (inactive) | > 100 µM (inactive) | > 100 µM (inactive) | > 100 µM (inactive) | > 100 µM (inactive) | > 100 µM (inactive) | > 100 µM (inactive) | > 100 µM (inactive) | > 100 µM (inactive) | > 100 µM (inactive) | > 100 µM (inactive) | > 100 µM (inactive) | > 100 µM (inactive)
7 | O=C1c2c(O)cccc2C(C(=O)CCCCCC(=O)C2c3cccc(O)c3C(=O)c3c(O)cccc32)c2cccc(O)c21 | 0.741 µM (active) | 3.82 µM (inactive) | 4.98 µM (inactive) | 2.27 µM (inactive) | 0.692 µM (active) | 3.22 µM (inactive) | 2.39 µM (inactive) | 1.14 µM (inactive) | 1.36 µM (inactive) | 1.07 µM (active) | 1.12 µM (active) | 1.98 µM (inactive) | 0.957 µM (active) | 4.04 µM (inactive) | 1.53 µM (inactive) | 0.537 µM (active) | 2.72 µM (inactive) | 0.804 µM (active)
8 | COC(=O)C(=O)C(C(=O)C=C(C)C)C(=O)C(=O)Nc1cc(C(F)(F)F)ccc1Cl (configuration not stated) | 24.4 µM (inactive) | > 100 µM (inactive) | 28.7 µM (inactive) | > 100 µM (inactive) | > 100 µM (inactive) | > 100 µM (inactive) | > 100 µM (inactive) | > 100 µM (inactive) | 21.3 µM (inactive) | > 100 µM (inactive) | > 100 µM (inactive) | 52.2 µM (inactive) | > 100 µM (inactive) | > 100 µM (inactive) | > 100 µM (inactive) | > 100 µM (inactive) | > 100 µM (inactive) | > 100 µM (inactive)
9 | CC1=Nc2ccccc2NC(c2ccoc2)C1 (configuration not stated) | > 100 µM (inactive) | > 100 µM (inactive) | > 100 µM (inactive) | > 100 µM (inactive) | > 100 µM (inactive) | > 100 µM (inactive) | > 100 µM (inactive) | > 100 µM (inactive) | > 100 µM (inactive) | > 100 µM (inactive) | > 100 µM (inactive) | > 100 µM (inactive) | > 100 µM (inactive) | > 100 µM (inactive) | > 100 µM (inactive) | > 100 µM (inactive) | > 100 µM (inactive) | > 100 µM (inactive)
10 | CCc1cc(C(=O)OC)cn1C(=N)c1ccc(Cl)cc1 | > 100 µM (inactive) | > 100 µM (inactive) | > 100 µM (inactive) | > 100 µM (inactive) | > 100 µM (inactive) | > 100 µM (inactive) | > 100 µM (inactive) | > 100 µM (inactive) | > 100 µM (inactive) | > 100 µM (inactive) | > 100 µM (inactive) | > 100 µM (inactive) | > 100 µM (inactive) | > 100 µM (inactive) | > 100 µM (inactive) | > 100 µM (inactive) | > 100 µM (inactive) | > 100 µM (inactive)
11 | CCCCCCCCOCC(COC(=O)CCCCCCC)OC(=O)CCCCCCC (configuration not stated) | > 100 µM (inactive) | > 100 µM (inactive) | > 100 µM (inactive) | > 100 µM (inactive) | > 100 µM (inactive) | > 100 µM (inactive) | > 100 µM (inactive) | > 100 µM (inactive) | 57 µM (inactive) | – | > 100 µM (inactive) | > 100 µM (inactive) | > 100 µM (inactive) | > 100 µM (inactive) | > 100 µM (inactive) | – | > 100 µM (inactive) | > 100 µM (inactive)
12 | CC1=CCC(O)C=CC(C)C(O)C(C)C=C(C)C(=O)c2c(O)c(C)cc3c2C(=O)C(N)=C(NC(=O)/C=C\C=C/C=CC(C)C(O)CC1=O)C3=O (configuration not stated) | > 100 µM (inactive) | > 100 µM (inactive) | > 100 µM (inactive) | > 100 µM (inactive) | > 100 µM (inactive) | > 100 µM (inactive) | 30.1 µM (inactive) | > 100 µM (inactive) | 67.6 µM (inactive) | > 100 µM (inactive) | > 100 µM (inactive) | 37.1 µM (inactive) | 21.6 µM (inactive) | > 100 µM (inactive) | > 100 µM (inactive) | > 100 µM (inactive) | > 100 µM (inactive) | > 100 µM (inactive)
13 | COC1=C2C[C@H](O)C(C)C[C@@]2(OC)OC1=O (some centres not stated) | > 100 µM (inactive) | – | > 100 µM (inactive) | > 100 µM (inactive) | > 100 µM (inactive) | – | > 100 µM (inactive) | > 100 µM (inactive) | > 100 µM (inactive) | > 100 µM (inactive) | > 100 µM (inactive) | > 100 µM (inactive) | > 100 µM (inactive) | > 100 µM (inactive) | – | > 100 µM (inactive) | – | > 100 µM (inactive)
14 | O=[N+]([O-])c1cccc(C2=NOC(C3CCCCC3)C2)c1 (configuration not stated) | – | > 100 µM (inactive) | > 100 µM (inactive) | > 100 µM (inactive) | > 100 µM (inactive) | 92 µM (inactive) | > 100 µM (inactive) | 94.6 µM (inactive) | > 100 µM (inactive) | > 100 µM (inactive) | > 100 µM (inactive) | > 100 µM (inactive) | > 100 µM (inactive) | > 100 µM (inactive) | > 100 µM (inactive) | > 100 µM (inactive) | > 100 µM (inactive) | > 100 µM (inactive)
15 | CCN(CC)C(=O)CNC(=O)OC(C)(C)C | > 100 µM (inactive) | > 100 µM (inactive) | > 100 µM (inactive) | > 100 µM (inactive) | > 100 µM (inactive) | > 100 µM (inactive) | > 100 µM (inactive) | > 100 µM (inactive) | > 100 µM (inactive) | > 100 µM (inactive) | > 100 µM (inactive) | – | > 100 µM (inactive) | > 100 µM (inactive) | > 100 µM (inactive) | > 100 µM (inactive) | > 100 µM (inactive) | > 100 µM (inactive)
16 | O=C1c2ccccc2C(=O)C1(Cl)C1(S(=O)(=O)O)c2ccccc2-c2ccccc21 | > 100 µM (inactive) | > 100 µM (inactive) | > 100 µM (inactive) | > 100 µM (inactive) | > 100 µM (inactive) | > 100 µM (inactive) | > 100 µM (inactive) | > 100 µM (inactive) | > 100 µM (inactive) | > 100 µM (inactive) | > 100 µM (inactive) | > 100 µM (inactive) | > 100 µM (inactive) | > 100 µM (inactive) | > 100 µM (inactive) | > 100 µM (inactive) | > 100 µM (inactive) | > 100 µM (inactive)
